Source: patent US20120219535A1, “CRANIAL NEURAL CREST STEM CELLS AND CULTURE CONDITION THAT SUPPORTS THEIR GROWTH” (University of Southern California, priority 2009, published 2012)
Entries after “also recorded” stand apart in the source; their conditions may differ.

Columns and labels:
[1] = test system: STAT3 negative cells; conditions: 80 μM AG490; cited from earlier work
[2] = test system: cells which are independent from the JAK-STAT signal; conditions: cited from earlier work
[3] = test system: primary cultured cranial neural crest cells; test: AG490 (Jak inhibitor) treatment of primary cultured cranial neural crest cells, alive cell count; assay type: cell-based, mouse; conditions: E8.5 FACS sorted cells
Description: (§1) AG490 (Sigma Chemical Co., St Louis, Mo., USA) was reconstituted in dimethyl sulfoxide (DMSO) and stored at −20° C. A stock concentration was 10 mM. Cranial tissues of Wnt1-Cre;R26R;EGFP mouse at E8.5 were dissociated by 0.025% trypsin and 1 mg/ml collagenase in DPBS. Then, neural crest cells labeled with Wnt1-Cre;R26R;EGFP were sorted by means of FACS and used for Jak inhibitor treatment. D7-1 or primary cultured cranial neural crest cells were seeded to fibronectin coated plate at a density of 20000 or 12700 cell/cm^2 respectively, and incubated for three days in basal medium as described above, added with either control DMSO, 10 μM AG490, or 20 μM AG490. Culture medium was changed daily. Alive cell number was counted on each day for D7-1 and third day for primary cultured cells.
These experiments were done with a long-term cultured craNCSC clone, D7-1, which has been treated with LIF during entire culture process. Therefore, it is possible that D7-1 cells has been poised to LIF and adopted to the JAK-STAT dependent culture condition. To evaluate this, Applicants freshly isolated Wnt1-Cre;R26R;EGFP positive cranial neural crest cells from E8.5 mouse embryos by FACS sorting and treated them with AG490 for three days. If JAK2 activity is dispensable to these primary neural crest, chemical treatment would not cause any apparent effects. […]

[4] = test system: craNCSC clone D7-1; test: AG490 (Jak inhibitor) treatment of long-term cultured craNCSC clone D7-1, alive cell count; assay type: cell-based, mouse; conditions: counted daily, vs 0.4% DMSO vehicle
Description: as §1
The hypothesis that phosphorylation of STAT3 by JAK kinase is essential for the maintenance of craNCSC was also investigated. JAK inhibitor AG490 was used for this study. AG490 is synthetic PTK inhibitor with anti-JAK2 activity. […] If craNCSC require the JAK-STAT signal for its maintenance, treatment of AG490 will cause overt effects. 10 μM and 20 μM AG490 treatment against D7-1 was performed for three days and alive cell number was counted on each day. […] Dose dependent susceptibility of D7-1 against AG490 was also evident.

[5] = test system: human B-precursor leukemic cell line; conditions: by inducing apoptosis; cited from earlier work

N#C/C(=C/c1ccc(O)c(O)c1)C(=O)NCc1ccccc1 [AG490]
general toxicity [1]: does not cause general toxicity
effect on cells [2]: no obvious effect
cell mortality (alive cell number) ([3]; 10 μM AG490, three days): High cell mortality
cell mortality (alive cell number) ([3]; 20 μM AG490, three days): High cell mortality
alive (viable) cell number ([4]; 10 μM AG490, three days): smaller effect; also recorded: more modest effect
alive (viable) cell number ([4]; 20 μM AG490, three days): significant reduction of the viable cells; also recorded: significant depletion of cell survival
cell growth [5]: prevents the growth
